Experimental data from patent publication US10059636B2, “Pesticide product including polyanionic polymers” (Verdesian Life Sciences, LLC, priority 2013, dated 2018).

System: cotton
Experiment: Phosphorous fixation field test with DAP on cotton
Format: in vivo
Conditions: for % by weight Phosphorous in Tissue: cotton tissue prior to first bloom
From the text: In a field test, two rates of phosphorous as diammonium phosphate (DAP) were broadcast-applied as a pre-plant fertilizer to a cotton field, namely 65 lbs of DAP per acre and 130 lbs of DAP per acre. The tests were two replications each of an unfertilized control, a DAP-only control, and DAP mixed with 0.25% w/w of a Class I polymer formulation. The formulation included 40% w/w of a partial zinc/sodium salt of T5 polymer, 5% w/w zinc, and the balance water, pH about 3,
Tissue tests were taken prior to first bloom from each plot, and the percent of phosphorous in the plant tissue was measured. After harvesting, lint yields were measured.

N.N.O=P(O)(O)O [DAP, diammonium phosphate]
Lint Yield (65 lbs of DAP per acre): 712 lbs/acre | % by weight Phosphorous in Tissue (65 lbs of DAP per acre): 0.41 % by weight | Lint Yield (130 lbs of DAP per acre): 781 lbs/acre | % by weight Phosphorous in Tissue (130 lbs of DAP per acre): 0.41 % by weight
